Results taken from patent publication US20070212716A1, “Nezara viridula Ecdysone Receptor” (Commonwealth Scientific & Industrial Research Org., priority 2006, published 2007).

T1: FLAG-tagged NvUSPDEF (DEF domains / ligand binding region of Nezara viridula ultraspiracle protein) (Nezara viridula)
T1 construct: Co-expressed with His6-EcRDEF (isoform 10 or 11) in Sf9 cells; also called FLAG USPDEF; FLAG USPDEF5.1
T1 chain: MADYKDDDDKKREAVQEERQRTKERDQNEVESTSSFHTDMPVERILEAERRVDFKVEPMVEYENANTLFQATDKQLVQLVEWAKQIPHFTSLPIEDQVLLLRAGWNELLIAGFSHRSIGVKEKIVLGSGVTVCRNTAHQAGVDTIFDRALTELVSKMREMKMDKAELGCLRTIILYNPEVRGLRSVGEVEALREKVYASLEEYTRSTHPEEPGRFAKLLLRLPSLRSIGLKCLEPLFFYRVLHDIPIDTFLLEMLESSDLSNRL

B1: (His)6-tagged NvEcR10DEF (DEF domains / ligand binding region of Nezara viridula ecdysone receptor protein isoform NvEcR10) (receptor)
chain: MGMRGSHHHHHHRPECVVPEYQCAVKRKEKKAQKDKDKPVSTTNGSPESIKVEEPHRVVYKTEGETLGRPVPINGVKPVSPEQEELIHRLVYFQNEYEHPSEEDLRRIVSNTPNEDEEQSDQRFRHLTEITILTVQLIVEFAKRLPGFDKLLREDQIALLKACSSEVMMLRMARKYDATTDSILFANNQPYNRESYSLAGMGDVIEDLLRFCRHMFNMKVDNAEYALLTAIVIFSERPALIEGWKVEKIQEIYLEALKSYVDNRSRPRSPTIFAKLLSVLTELRTLGNQNSEMCFSLKLQNKKLPPFLAEIWDVNT
notes: Co-expressed with FLAG-NvUSPDEF in Sf9 cells from one baculovirus; also called His6EcRDEF10.1; EcRDEF
B2: (His)6-tagged NvEcR11DEF (DEF domains / ligand binding region of Nezara viridula ecdysone receptor protein isoform NvEcR11) (receptor)
chain: MGMRGSHHHHHHRPECVVPEYQCAVKRKEKKAQKDKDKPVSTTNGSPESIKVEEPHRVVYKTEGETLGRPVPINGVKPVSPEQEELIHRLVYFQNEYEHPSEEDLRRINTPNEDEEQSDQRFRHLTEITILTVQLIVEFAKRLPGFDKLLREDQIALLKACSSEVMMLRMARKYDATTDSILFANNQPYNRESYSLAGMGDVIEDLLRFCRHMFNMKVDNAEYALLTAIVIFSERPALIEGWKVEKIQEIYLEALKSYVDNRSRPRSPTIFAKLLSVLTELRTLGNQNSEMCFSLKLQNKKLPPFLAEIWDVNT
notes: Co-expressed with FLAG-NvUSPDEF in Sf9 cells from one baculovirus; also called His6EcRDEF11.1; EcRDEF

What was measured:
[1] = biological target: ecdysone receptor recombinant ligand binding domains (DEF regions) heterodimer; test: [3H]ponasterone A binding, Myzus persicae recombinant ligand binding region heterodimer; conditions: IMAC-purified Myzus persicae heterodimer; previously studied by this group
Experimental: (§1) Ligand binding was measured by a [^3H]ponasterone A binding assay which involved trapping of [^3H]ponasterone A-receptor protein complex on glass fibre discs and washing away unbound steroid before scintillation counting in a Packard Tri-carb scintillation analyser. All such assays, unless otherwise stated, were conducted at the same concentration of bindable [^3H]ponasterone A (2.2 nM, after correcting for the fraction of radioactive material that could never be bound no matter how much receptor was added). Binding by the receptor was expressed in terms of arbitrary units (U) that, in the linear range of the assay (i.e. up to 30 000 cpm bound per filter), were directly proportional to filter-bound cpm. Historically, IU was defined as the amount of [^3H]ponasterone A binding conveyed by a fixed volume of a specific receptor preparation. […] On average, 1 pmol of receptor-bound [^3H]ponasterone A corresponds to approximately 15.2 U. Specific activity values (U/μg protein) can be calculated for different preparations of purified receptor and these reflect the purity of the preparation, the proportion of receptor that is functional, and the Kd value for that particular receptor. […]

[2] = test system: NvEcR11DEF-NvUSPDEF recombinant ecdysone receptor ligand binding region heterodimer; test: [3H]ponasterone A filter binding assay / equilibrium binding, NvEcR11DEF-NvUSPDEF; design: species or system Nezara viridula
Experimental: (§2) Ponasterone A binding data used in Kd determination for the purified recombinant heterodimers NvEcR10DEF−NvUSPDEF and NvEcR11DEF−NvUSPDEF (Kd curves). Rt=concentration of active receptor. L=free [^3H] Ponasterone A. All values in tables are given in pM.
as §1, with “cpm.” for “cpm. Historically, IU was defined as the amount of [^3H]ponasterone A binding conveyed by a fixed volume of a specific receptor preparation.”

[3] = biological target: ecdysone receptor recombinant ligand binding domains (DEF regions) heterodimer; test: [3H]ponasterone A binding, Bemisia tabaci recombinant ligand binding region heterodimer; conditions: IMAC-purified Bemisia tabaci heterodimer; previously studied by this group
Experimental: as §1

[4] = biological target: ecdysone receptor recombinant ligand binding domains (DEF regions) heterodimer; test: [3H]ponasterone A binding, Helicoverpa armigera recombinant ligand binding region heterodimer; conditions: IMAC-purified Helicoverpa armigera heterodimer; previously studied by this group
Experimental: as §1

[5] = biological target: ecdysone receptor recombinant ligand binding domains (DEF regions) heterodimer; test: [3H]ponasterone A binding, Lucilia cuprina recombinant ligand binding region heterodimer; conditions: IMAC-purified Lucilia cuprina heterodimer; previously studied by this group
Experimental: Ligand binding was measured by a [^3H]ponasterone A binding assay which involved trapping of [^3H]ponasterone A-receptor protein complex on glass fibre discs and washing away unbound steroid before scintillation counting in a Packard Tri-carb scintillation analyser. All such assays, unless otherwise stated, were conducted at the same concentration of bindable [^3H]ponasterone A (2.2 nM, after correcting for the fraction of radioactive material that could never be bound no matter how much receptor was added). Binding by the receptor was expressed in terms of arbitrary units (U) that, in the linear range of the assay (i.e. up to 30 000 cpm bound per filter), were directly proportional to filter-bound cpm. Historically, IU was defined as the amount of [^3H]ponasterone A binding conveyed by a fixed volume of a specific receptor preparation. […] On average, 1 pmol of receptor-bound [^3H]ponasterone A corresponds to approximately 15.2 U. Specific activity values (U/μg protein) can be calculated for different preparations of purified receptor and these reflect the purity of the preparation, the proportion of receptor that is functional, and the Kd value for that particular receptor.
Target sequence in this assay (O18531 374-757 limits assumed, one chain of several): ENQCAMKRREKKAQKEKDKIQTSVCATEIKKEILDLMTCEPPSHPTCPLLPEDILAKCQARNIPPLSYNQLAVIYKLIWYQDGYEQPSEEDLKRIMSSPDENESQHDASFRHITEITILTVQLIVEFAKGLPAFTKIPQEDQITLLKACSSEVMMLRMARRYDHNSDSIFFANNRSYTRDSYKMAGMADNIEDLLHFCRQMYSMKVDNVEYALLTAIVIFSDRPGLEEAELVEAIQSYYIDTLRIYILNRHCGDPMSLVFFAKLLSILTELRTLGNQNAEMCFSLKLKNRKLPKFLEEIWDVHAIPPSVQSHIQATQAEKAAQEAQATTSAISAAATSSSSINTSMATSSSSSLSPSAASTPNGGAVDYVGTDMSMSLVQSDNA

[6] = test system: NvEcR10DEF-NvUSPDEF recombinant ecdysone receptor ligand binding region heterodimer; test: [3H]ponasterone A filter binding assay / equilibrium binding, NvEcR10DEF-NvUSPDEF; design: species or system Nezara viridula
Experimental: as §2
as §1, with “cpm.” for “cpm. Historically, IU was defined as the amount of [^3H]ponasterone A binding conveyed by a fixed volume of a specific receptor preparation.”

NvEcR11DEF-NvUSPDEF = NvEcR11DEF-NvUSPDEF (Nezara viridula, UniProt E5L6Y2); test: Competition binding with [3H]ponasterone A, NvEcR11DEF-NvUSPDEF; conditions: for Ki: calculated from IC50 with the Cheng-Prusoff equation; for IC50: competition with 1.3 nM bindable [3H]ponasterone A
Experimental: (§3) Ligand binding was measured by a [^3H]ponasterone A binding assay which involved trapping of [^3H]ponasterone A-receptor protein complex on glass fibre discs and washing away unbound steroid before scintillation counting in a Packard Tri-carb scintillation analyser. All such assays, unless otherwise stated, were conducted at the same concentration of bindable [^3H]ponasterone A (2.2 nM, after correcting for the fraction of radioactive material that could never be bound no matter how much receptor was added). Binding by the receptor was expressed in terms of arbitrary units (U) that, in the linear range of the assay (i.e. up to 30 000 cpm bound per filter), were directly proportional to filter-bound cpm. Historically, IU was defined as the amount of [^3H]ponasterone A binding conveyed by a fixed volume of a specific receptor preparation. Differences in the assay over time were corrected for empirically by re-assaying the reference receptor preparation with each new batch of [^3H]ponasterone A and calculating a batch-specific adjustment that was incorporated into the numerical factor used to convert filter-bound cpm into ligand binding units. On average, 1 pmol of receptor-bound [^3H]ponasterone A corresponds to approximately 15.2 U. Specific activity values (U/μg protein) can be calculated for different preparations of purified receptor and these reflect the purity of the preparation, the proportion of receptor that is functional, and the Kd value for that particular receptor.
(§4) Increasing concentrations of, ponasterone A, muristerone A, 20-hydroxyecdysone, inokosterone, and α-ecdysone (2β, 3β, 14α,22R, 25-pentahydroxy-5β-cholest-7-ene-6-one) were used to study the ability to compete with a 1.3 nM bindable concentration of [^3H] ponasterone A for binding to the Nv recombinant heterodimers NvEcR10DEF−NvUSPDEF and NvEcR11DEF−NvUSPDEF. IC50 values were obtained from smooth curves drawn through the data points (see FIG. 6), and from these Ki values were calculated using the Cheng-Prusoff equation (Cheng et at, 1973).

NvEcR10DEF-NvUSPDEF = NvEcR10DEF-NvUSPDEF (Nezara viridula, UniProt E5L6Y1); test: Competition binding with [3H]ponasterone A, NvEcR10DEF-NvUSPDEF; conditions: for Ki: calculated from IC50 with the Cheng-Prusoff equation; for IC50: competition with 1.3 nM bindable [3H]ponasterone A
Experimental: as §3, §4

[7] = biological target: T1, FLAG-tagged NvUSPDEF (DEF domains / …); test: IMAC co-purification of the heterodimer through the His6 tag on EcRDEF, from Sf9 cell extracts

Molecule	Ki (NvEcR11DEF-NvUSPDEF) [nM]	IC50 (NvEcR11DEF-NvUSPDEF) [nM]	Ki (NvEcR10DEF-NvUSPDEF) [nM]	IC50 (NvEcR10DEF-NvUSPDEF) [nM]	also measured
[^3H]ponasterone A	–	–	–	–	Kd [1]: 0.7 ± 0.1 nM; Specific activity ([3H]ponasterone A binding units per μg protein) [1]: 17.3-18.8 U/μg; Specific activity ([3H]ponasterone A binding units per μg protein) ([2]; IMAC-purified NvEcR11DEF-NvUSPDEF, 2.2 nM bindable [3H]ponasterone A): 7.3 U/μg; Kd ([2]; equilibrium binding of [3H]ponasterone A to IMAC-purified NvEcR11DEF-NvUSPDEF): 7.5 ± 0.8 nM; Kd [3]: 1.2 ± 0.2 nM; Specific activity ([3H]ponasterone A binding units per μg protein) [3]: 11.3 U/μg; Kd [4]: 2.5 ± 0.1 nM; Kd [5]: 1 ± 0.1 nM; Specific activity ([3H]ponasterone A binding units per μg protein) [5]: 15.4-24.3 U/μg; Specific activity ([3H]ponasterone A binding units per μg protein) ([6]; IMAC-purified NvEcR10DEF-NvUSPDEF, 2.2 nM bindable [3H]ponasterone A): 5.0 U/μg; Kd ([6]; equilibrium binding of [3H]ponasterone A to IMAC-purified NvEcR10DEF-NvUSPDEF): 6.8 ± 0.8 nM
CC(CO)CC[C@@H](O)[C@](C)(O)[C@H]1CC[C@@]2(O)C3=CC(=O)[C@@H]4C[C@@H](O)[C@@H](O)C[C@]4(C)[C@H]3CC[C@]12C (stereo partly drawn) [Inokosterone]	6800	8000	6300	7500	–
2β, 3β, 14α, 20R,22R,25-hexahydroxy-5β-cholest-7-′ene-6-one [20-hydroxyecdysone]	3800	4500	3600	4000	–
CC(C)CC[C@@H](O)[C@](C)(O)[C@H]1CC[C@@]2(O)C3=CC(=O)[C@]4(O)C[C@@H](O)[C@@H](O)C[C@]4(C)[C@H]3[C@H](O)C[C@]12C [Muristerone A]	100	120	100	120	–
CC(C)CC[C@@H](O)[C@](C)(O)[C@H]1CC[C@@]2(O)C3=CC(=O)[C@@H]4C[C@@H](O)[C@@H](O)C[C@]4(C)[C@H]3CC[C@]12C [Ponasterone A]	200	280	200	260	–
CC(C(O)CCC(C)(C)O)C1CCC2(O)C3=CC(=O)C4CC(O)C(O)CC4(C)C3CCC12C [α-Ecdysone, 2β, 3β, 14α,22R, 25-pentahydroxy-5β-cholest-7-ene-6-one]	45200	53000	46200	55000	–
B1	–	–	–	–	binding result [7]: binds
B2	–	–	–	–	binding result [7]: binds
